Key:
[1] = molecular target: T1, strychnine insensitive glycine binding site associated with the NMDA receptor complex (Rattus norvegicus, UniProt P35439); test: binding at the strychnine insensitive glycine binding site (procedure of Kishimoto H et al.)
T1 construct: from tissue; host or cells: rat CNS membranes (inferred from the cited procedure)
Experimental: (§1) The potent and selective action of the compound of the invention at the strychnine-insensitive glycine binding site present on the NMDA receptor complex may be readily determined using conventional test procedures. Thus the ability to bind at the strychnine insensitive glycine binding site was determined using the procedure of Kishimoto H et al., J Neurochem 1981, 37, 1015-1024. The selectivity of the action of compounds of the invention for the strychnine insensitive glycine site was confirmed in studies at other ionotropic known excitatory amino acid receptors.

[2] = system: kainic acid (kainate) receptor; test: selectivity study at other ionotropic excitatory amino acid receptors: kainate; assay type: binding
Experimental: as §1

NMDA binding site = test: selectivity study at other ionotropic excitatory amino acid receptors: NMDA binding site
Experimental: as §1

mice = test: tolerability on administration to mice; assay type: in vivo; conditions: pharmacological active doses
[3] = system: a-amino-3-hydroxy-5-methyl-4-isoxazole-proprionic acid (AMPA) receptor; test: selectivity study at other ionotropic excitatory amino acid receptors: AMPA; assay type: binding
Experimental: as §1

## CNC[C@H](O)[C@@H](O)[C@H](O)[C@H](O)CO.O=C(O)C1CC(=C2CCN(c3ccccc3)C2=O)c2ccc(Cl)cc2N1 (single isomer, unassigned; enantiomer a) [compound of the invention, meglumine salt of enantiomer A of 7-chloro-4-(2-oxo-1-phenyl-3-pyrrolidinylidene)-1,2,3,4-tetrahydro-2-quinolinecarboxylic acid]
[1]
  antagonism at the strychnine insensitive glycine binding site: potent antagonist
[2]
  affinity for the kainic acid (kainate) receptor: little or no affinity
NMDA binding site
  affinity at the NMDA binding site: little or no affinity
mice
  untoward effects: No untoward effects
[3]
  affinity for the AMPA receptor: little or no affinity

— patent US6713491B2, “Heterocyclic derivatives” (priority 1999, dated 2004)
